# Assay results: the supplement of paper PMC4862054
# System: MDA-MB-468
# Experiment: normalised response (% of control), CellTox Green; higher = less cell death (100 = DMSO, 0 = benzethonium chloride kill control)
# Settings: incubation time: 72 h
# Summary of the method: (§1)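 For each plate, 0.1 % DMSO was set to 100 and a positive kill control to 0. Breast cancer cell lines (20 µl suspension) were seeded into 384-well plates already holding compound at 5 concentrations in 10-fold steps over a 10,000-fold range chosen per compound, and incubated for 72 h. CellTox Green fluorescence at 485/520 nm was read before CellTiter-Glo luminescence, which followed 10 min at room temperature. Each value is the normalised signal at one concentration.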
row,SMILES,normalised response
1,CCCCCCCCCCCCCCCCCCOP(=O)([O-])OC1CC[N+](C)(C)CC1 [Perifosine] (25 nM),95.6%
2,C=C(c1ccc(C(=O)O)cc1)c1cc2c(cc1C)C(C)(C)CCC2(C)C [Bexarotene] (100 nM),108%
3,CS(=O)(=O)c1ccc(C2=C(c3ccccc3)C(=O)OC2)cc1 [Rofecoxib] (100 nM),118%
4,COc1cc2nccc(Oc3ccc(NC(=O)C4(C(=O)Nc5ccc(F)cc5)CC4)cc3)c2cc1OC [Cabozantinib] (10 nM),62.5%
5,Oc1nc(-c2ccc(C(F)(F)F)cc2)nc2c1CSCC2 [XAV-939] (100 nM),130%
6,CN(N=O)C(=O)N[C@@H](C=O)[C@@H](O)[C@H](O)[C@H](O)CO [Streptozocin] (100 nM),124%
7,Cn1c(Nc2ccc(C(F)(F)F)cc2)nc2cc(Oc3ccnc(-c4ncc(C(F)(F)F)[nH]4)c3)ccc21 [RAF265] (10 nM),158%
8,O=P1(NCCCl)OCCCN1CCCl (stereo not given) [Ifosfamide] (100 nM),194%
9,CC1(C)NC(=O)N(c2ccc([N+](=O)[O-])c(C(F)(F)F)c2)C1=O [Nilutamide] (100 nM),148%

# System: MDA-MB-231
# Experiment: as above
# Settings: incubation time: 72 h
# Summary of the method: as §1
row,SMILES,normalised response
1,CCCCCCCCCCCCCCCCCCOP(=O)([O-])OC1CC[N+](C)(C)CC1 [Perifosine] (25 nM),92.4%
2,CS(=O)(=O)c1ccc(C2=C(c3ccccc3)C(=O)OC2)cc1 [Rofecoxib] (100 nM),117%
3,Oc1nc(-c2ccc(C(F)(F)F)cc2)nc2c1CSCC2 [XAV-939] (100 nM),100%
4,CN(N=O)C(=O)N[C@@H](C=O)[C@@H](O)[C@H](O)[C@H](O)CO [Streptozocin] (100 nM),113%
5,Cn1c(Nc2ccc(C(F)(F)F)cc2)nc2cc(Oc3ccnc(-c4ncc(C(F)(F)F)[nH]4)c3)ccc21 [RAF265] (10 nM),104%
6,O=P1(NCCCl)OCCCN1CCCl (stereo not given) [Ifosfamide] (100 nM),87.4%
7,CC1(C)NC(=O)N(c2ccc([N+](=O)[O-])c(C(F)(F)F)c2)C1=O [Nilutamide] (100 nM),105%

# System: BT-549
# Experiment: as above
# Settings: incubation time: 72 h
# Summary of the method: as §1
row,SMILES,normalised response
1,CCCCCCCCCCCCCCCCCCOP(=O)([O-])OC1CC[N+](C)(C)CC1 [Perifosine] (25 nM),97.1%
2,C=C(c1ccc(C(=O)O)cc1)c1cc2c(cc1C)C(C)(C)CCC2(C)C [Bexarotene] (100 nM),92.4%
3,CS(=O)(=O)c1ccc(C2=C(c3ccccc3)C(=O)OC2)cc1 [Rofecoxib] (100 nM),95.7%
4,COc1cc2nccc(Oc3ccc(NC(=O)C4(C(=O)Nc5ccc(F)cc5)CC4)cc3)c2cc1OC [Cabozantinib] (10 nM),107%
5,Oc1nc(-c2ccc(C(F)(F)F)cc2)nc2c1CSCC2 [XAV-939] (100 nM),98.8%
6,CN(N=O)C(=O)N[C@@H](C=O)[C@@H](O)[C@H](O)[C@H](O)CO [Streptozocin] (100 nM),107%
7,Cn1c(Nc2ccc(C(F)(F)F)cc2)nc2cc(Oc3ccnc(-c4ncc(C(F)(F)F)[nH]4)c3)ccc21 [RAF265] (10 nM),98.1%
8,O=P1(NCCCl)OCCCN1CCCl (stereo not given) [Ifosfamide] (100 nM),112%
9,CC1(C)NC(=O)N(c2ccc([N+](=O)[O-])c(C(F)(F)F)c2)C1=O [Nilutamide] (100 nM),98.4%

# System: CAL-148
# Experiment: as above
# Settings: incubation time: 72 h
# Summary of the method: as §1
row,SMILES,normalised response
1,CCCCCCCCCCCCCCCCCCOP(=O)([O-])OC1CC[N+](C)(C)CC1 [Perifosine] (25 nM),103%
2,C=C(c1ccc(C(=O)O)cc1)c1cc2c(cc1C)C(C)(C)CCC2(C)C [Bexarotene] (100 nM),95.2%
3,CS(=O)(=O)c1ccc(C2=C(c3ccccc3)C(=O)OC2)cc1 [Rofecoxib] (100 nM),101%
4,COc1cc2nccc(Oc3ccc(NC(=O)C4(C(=O)Nc5ccc(F)cc5)CC4)cc3)c2cc1OC [Cabozantinib] (10 nM),76%
5,Oc1nc(-c2ccc(C(F)(F)F)cc2)nc2c1CSCC2 [XAV-939] (100 nM),99.6%
6,Cn1c(Nc2ccc(C(F)(F)F)cc2)nc2cc(Oc3ccnc(-c4ncc(C(F)(F)F)[nH]4)c3)ccc21 [RAF265] (10 nM),103%
7,O=P1(NCCCl)OCCCN1CCCl (stereo not given) [Ifosfamide] (100 nM),90.8%
8,CC1(C)NC(=O)N(c2ccc([N+](=O)[O-])c(C(F)(F)F)c2)C1=O [Nilutamide] (100 nM),96.7%

# System: HDQ-P1
# Experiment: as above
# Settings: incubation time: 72 h
# Summary of the method: as §1
row,SMILES,normalised response
1,C=C(c1ccc(C(=O)O)cc1)c1cc2c(cc1C)C(C)(C)CCC2(C)C [Bexarotene] (100 nM),108%
2,Cn1c(Nc2ccc(C(F)(F)F)cc2)nc2cc(Oc3ccnc(-c4ncc(C(F)(F)F)[nH]4)c3)ccc21 [RAF265] (10 nM),52.6%
3,O=P1(NCCCl)OCCCN1CCCl (stereo not given) [Ifosfamide] (100 nM),88%

# System: CAL-120
# Experiment: as above
# Settings: incubation time: 72 h
# Summary of the method: as §1
row,SMILES,normalised response
1,CCCCCCCCCCCCCCCCCCOP(=O)([O-])OC1CC[N+](C)(C)CC1 [Perifosine] (25 nM),103%
2,C=C(c1ccc(C(=O)O)cc1)c1cc2c(cc1C)C(C)(C)CCC2(C)C [Bexarotene] (100 nM),99.7%
3,CS(=O)(=O)c1ccc(C2=C(c3ccccc3)C(=O)OC2)cc1 [Rofecoxib] (100 nM),104%
4,COc1cc2nccc(Oc3ccc(NC(=O)C4(C(=O)Nc5ccc(F)cc5)CC4)cc3)c2cc1OC [Cabozantinib] (10 nM),98.1%
5,Oc1nc(-c2ccc(C(F)(F)F)cc2)nc2c1CSCC2 [XAV-939] (100 nM),101%
6,CN(N=O)C(=O)N[C@@H](C=O)[C@@H](O)[C@H](O)[C@H](O)CO [Streptozocin] (100 nM),107%
7,Cn1c(Nc2ccc(C(F)(F)F)cc2)nc2cc(Oc3ccnc(-c4ncc(C(F)(F)F)[nH]4)c3)ccc21 [RAF265] (10 nM),101%
8,O=P1(NCCCl)OCCCN1CCCl (stereo not given) [Ifosfamide] (100 nM),98%
9,CC1(C)NC(=O)N(c2ccc([N+](=O)[O-])c(C(F)(F)F)c2)C1=O [Nilutamide] (100 nM),102%

# System: HCC1143
# Experiment: as above
# Settings: incubation time: 72 h
# Summary of the method: as §1
row,SMILES,normalised response
1,CCCCCCCCCCCCCCCCCCOP(=O)([O-])OC1CC[N+](C)(C)CC1 [Perifosine] (25 nM),89.7%
2,C=C(c1ccc(C(=O)O)cc1)c1cc2c(cc1C)C(C)(C)CCC2(C)C [Bexarotene] (100 nM),97.9%
3,CS(=O)(=O)c1ccc(C2=C(c3ccccc3)C(=O)OC2)cc1 [Rofecoxib] (100 nM),98.7%
4,COc1cc2nccc(Oc3ccc(NC(=O)C4(C(=O)Nc5ccc(F)cc5)CC4)cc3)c2cc1OC [Cabozantinib] (10 nM),104%
5,Oc1nc(-c2ccc(C(F)(F)F)cc2)nc2c1CSCC2 [XAV-939] (100 nM),108%
6,CN(N=O)C(=O)N[C@@H](C=O)[C@@H](O)[C@H](O)[C@H](O)CO [Streptozocin] (100 nM),114%
7,Cn1c(Nc2ccc(C(F)(F)F)cc2)nc2cc(Oc3ccnc(-c4ncc(C(F)(F)F)[nH]4)c3)ccc21 [RAF265] (10 nM),116%
8,O=P1(NCCCl)OCCCN1CCCl (stereo not given) [Ifosfamide] (100 nM),74.1%
9,CC1(C)NC(=O)N(c2ccc([N+](=O)[O-])c(C(F)(F)F)c2)C1=O [Nilutamide] (100 nM),119%

# System: HCC1599
# Experiment: as above
# Settings: incubation time: 72 h
# Summary of the method: as §1
row,SMILES,normalised response
1,CCCCCCCCCCCCCCCCCCOP(=O)([O-])OC1CC[N+](C)(C)CC1 [Perifosine] (25 nM),97.9%
2,C=C(c1ccc(C(=O)O)cc1)c1cc2c(cc1C)C(C)(C)CCC2(C)C [Bexarotene] (100 nM),105%
3,CS(=O)(=O)c1ccc(C2=C(c3ccccc3)C(=O)OC2)cc1 [Rofecoxib] (100 nM),101%
4,COc1cc2nccc(Oc3ccc(NC(=O)C4(C(=O)Nc5ccc(F)cc5)CC4)cc3)c2cc1OC [Cabozantinib] (10 nM),91.5%
5,Oc1nc(-c2ccc(C(F)(F)F)cc2)nc2c1CSCC2 [XAV-939] (100 nM),101%
6,CN(N=O)C(=O)N[C@@H](C=O)[C@@H](O)[C@H](O)[C@H](O)CO [Streptozocin] (100 nM),104%
7,Cn1c(Nc2ccc(C(F)(F)F)cc2)nc2cc(Oc3ccnc(-c4ncc(C(F)(F)F)[nH]4)c3)ccc21 [RAF265] (10 nM),107%
8,O=P1(NCCCl)OCCCN1CCCl (stereo not given) [Ifosfamide] (100 nM),95.1%
9,CC1(C)NC(=O)N(c2ccc([N+](=O)[O-])c(C(F)(F)F)c2)C1=O [Nilutamide] (100 nM),108%

# System: CAL-85-1
# Experiment: as above
# Settings: incubation time: 72 h
# Summary of the method: as §1
row,SMILES,normalised response
1,CCCCCCCCCCCCCCCCCCOP(=O)([O-])OC1CC[N+](C)(C)CC1 [Perifosine] (25 nM),109%
2,C=C(c1ccc(C(=O)O)cc1)c1cc2c(cc1C)C(C)(C)CCC2(C)C [Bexarotene] (100 nM),95.8%
3,CS(=O)(=O)c1ccc(C2=C(c3ccccc3)C(=O)OC2)cc1 [Rofecoxib] (100 nM),107%
4,COc1cc2nccc(Oc3ccc(NC(=O)C4(C(=O)Nc5ccc(F)cc5)CC4)cc3)c2cc1OC [Cabozantinib] (10 nM),96.5%
5,Oc1nc(-c2ccc(C(F)(F)F)cc2)nc2c1CSCC2 [XAV-939] (100 nM),111%
6,CN(N=O)C(=O)N[C@@H](C=O)[C@@H](O)[C@H](O)[C@H](O)CO [Streptozocin] (100 nM),107%
7,Cn1c(Nc2ccc(C(F)(F)F)cc2)nc2cc(Oc3ccnc(-c4ncc(C(F)(F)F)[nH]4)c3)ccc21 [RAF265] (10 nM),106%
8,O=P1(NCCCl)OCCCN1CCCl (stereo not given) [Ifosfamide] (100 nM),110%
9,CC1(C)NC(=O)N(c2ccc([N+](=O)[O-])c(C(F)(F)F)c2)C1=O [Nilutamide] (100 nM),102%

# System: MCF-10A
# Experiment: as above
# Settings: incubation time: 72 h
# Summary of the method: as §1
row,SMILES,normalised response
1,CCCCCCCCCCCCCCCCCCOP(=O)([O-])OC1CC[N+](C)(C)CC1 [Perifosine] (25 nM),106%
2,C=C(c1ccc(C(=O)O)cc1)c1cc2c(cc1C)C(C)(C)CCC2(C)C [Bexarotene] (100 nM),104%
3,CS(=O)(=O)c1ccc(C2=C(c3ccccc3)C(=O)OC2)cc1 [Rofecoxib] (100 nM),88.5%
4,COc1cc2nccc(Oc3ccc(NC(=O)C4(C(=O)Nc5ccc(F)cc5)CC4)cc3)c2cc1OC [Cabozantinib] (10 nM),85.1%
5,Oc1nc(-c2ccc(C(F)(F)F)cc2)nc2c1CSCC2 [XAV-939] (100 nM),95.1%
6,CN(N=O)C(=O)N[C@@H](C=O)[C@@H](O)[C@H](O)[C@H](O)CO [Streptozocin] (100 nM),64.2%
7,Cn1c(Nc2ccc(C(F)(F)F)cc2)nc2cc(Oc3ccnc(-c4ncc(C(F)(F)F)[nH]4)c3)ccc21 [RAF265] (10 nM),64.3%
8,O=P1(NCCCl)OCCCN1CCCl (stereo not given) [Ifosfamide] (100 nM),102%
